Measured values reported in US20120108607A1, “OPTICALLY ACTIVE 3-[(PHENYLPIPERAZIN-1-YL)ALKYL]-3- ALKYL-OXINDOLE DERIVATIVES HAVING CNS ACTIVITY” (priority 2009, published 2012).
Where “and” joins values, the source holds several entries; their conditions need not be identical. Equal values may be shown once. Entries after “also recorded” stand apart in the source; their conditions may differ.

Experiments:
5-HT2A receptors = target: T1, 5-HT2A receptors (Rattus norvegicus, UniProt P14842); test: receptor-binding assay, 5-HT2A (3H-ketanserine, frontal cortex); conditions: for Ki: 3H-ketanserine 1.0 nM, frontal cortex
T1 construct: brain tissues from male Wistar rats weighing 120-200 g; from tissue
Description: In the receptor-binding assays, brain tissues from male Wistar rats weighing 120-200 g or cloned human 5-HT6 or D4 receptors were used.
The basic information with regard the receptor-binding assay is disclosed in Table 1.

male DBA mice = test: Porsolt's test (antidepressant effect); assay type: in vivo, mouse; conditions: for Porsolt-test (model for antidepressant effect), MED: ip., 30 minutes before the test, p<0.05
Procedure: The antidepressant effect of the compounds of the Formula (I) has been established in Porsolt's test in male DBA mice weighing 20 to 25 grams. The swimming experiment was carried out in cylinders of 17.7 cm height and 12 cm diameter (Porsolt, R. D.: Behavioral despair. In: Enna, S. J., Malick, J. B., and Richelson, E. (eds.): “Antidepressants: Neurochemical, Behavioral, and Clinical Prespectives.” New York: Raven Press, 1981. pp. 121-139). In each experiment, four cylinders were used simultaneously. The animals were treated 30 minutes before the test with the test substances or with the vehicle in the dose of 1-3-10 mg/kg i.p. Animals were allowed to stay in the cylinder for six minutes. In the first two minutes, no measurement was made since this period was considered as the adaptation period. In the following four minutes (minutes 3 to 6 of the experiment) the time spent in immobile state was determined. The immobile time was registered for each animal with a precision of one second. The average was calculated for each group and the percentage effect was calculated for each treated group with reference for the control group. The statistical significance of the differences between groups was analyzed by […].
On the basis of the statistical significance determined for the difference of each dose from the control, MED (minimum effective dose) values were calculated. […] A significant decrease of time spent in immobility was interpreted as an antidepressant effect.

[1] = target: T2, cloned human D4 receptors (Homo sapiens, UniProt P21917); test: receptor-binding assay, D4 (3H-YM-09151-2, SF9 cells); conditions: for Ki: 3H-YM-09151-2 0.28 nM, SF9 cells
T2 construct: expressed in transfected cells
T2 sequence (P21917 1-419): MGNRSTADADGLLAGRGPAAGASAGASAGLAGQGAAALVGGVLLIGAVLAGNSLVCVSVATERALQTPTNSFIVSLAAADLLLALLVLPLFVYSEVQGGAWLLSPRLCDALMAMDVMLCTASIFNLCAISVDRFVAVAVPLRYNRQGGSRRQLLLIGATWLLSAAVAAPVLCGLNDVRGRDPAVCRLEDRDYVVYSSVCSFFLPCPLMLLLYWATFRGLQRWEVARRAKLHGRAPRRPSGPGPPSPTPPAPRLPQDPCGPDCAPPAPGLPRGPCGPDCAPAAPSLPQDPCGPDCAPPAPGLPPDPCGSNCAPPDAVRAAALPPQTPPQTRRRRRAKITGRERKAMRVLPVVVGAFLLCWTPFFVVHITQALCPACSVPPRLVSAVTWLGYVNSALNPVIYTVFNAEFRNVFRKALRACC
Procedure: (§1) In the receptor-binding assays, brain tissues from male Wistar rats weighing 120-200 g or cloned human 5-HT6 or D4 receptors were used. The protein contents of the membrane preparates were determined according to Lowry (Lowry O. H., Rosenbrough N. J., Farr A. L., Randall R. J., Protein measurement with the Folin-Phenol reagents. J Biol Chem, 193: 265-275 (1951).
(§2) The basic information with regard the receptor-binding assay is disclosed in Table 1. The binding assays were carried out according to the method of Leysen (Leysen J. E, Niemegeers C. J. E, Van Nueten J. M., Laduron P. M.: ^[3H]Ketanserin (R41468), a selective ^[3H]ligand for Serotonine2 receptor binding. Mol Pharmacol, 21: 301-314 (1981)). The tested compound was deemed to be effective in the case when the Ki value was smaller than 100 nM.

male NMRI mice = test: permanent focal cerebral ischemia model (neuroprotective effect); assay type: in vivo, mouse; conditions: ip., 30 minutes after surgery
Procedure: The neuroprotective effect of the compounds of the Formula (I) was tested in the permanent focal cerebral ischemia model according to the modified method of Karkoutly and coworkers (Karkoutly, C., Backhauss, C., Nuglisch, J., Krieglstein, J.: The measurement of the infarcted area after middle cerebral artery occlusion in the mouse: a screening model. In Krieglstein, J., Oberpichler, H. ed. Pharmacology of Cerebral Ischemia 1990. Wissenschaftliche Verlagsgesellschaft mbH Stuttgart. 63-69 (1990).).
Male NMRI mice weighing 30 to 35 grams were anesthetized with 2,2,2-tribromoethanol administered intraperitoneally in the dose of 500 mg/kg (20 ml/kg). During anesthesia, surgery was performed according to the surgical protocol of Welsh and coworkers (Welsh, F. A., Sakamoto, T., McKee, A., Sims, R. E.: Effect of lactacidosis on pyridine nucleotide stability during ischemia in mouse. J. Neurochem. 49: 846-851 (1987)). The distal part of the middle […] artery (MCA) was occluded with electric cauter. Test compounds were administered intraperitoneally 30 minutes after surgery in the dose of 0.1-0.3-1.0-3.0-10.0 mg/kg). After 48 hours, mice were anesthetised by 120 mg/kg sodium pentobarbital intraperitoneally. The brains were perfused through the left ventricle with 2 ml of 4% 2,3,5-triphenyl-tetrazolium-chloride (TTC) solution. After one hour, the brains was removed and placed into ice-cool saline for one to two minutes. Subsequently the brains were placed into 8% aqueous formaldehyde solution. After 24 hours, the area of white lesions was determined by a computerized image analysis software. The statistical evaluation was performed by variance analysis followed by Duncan-test.

[2] = target: T3, cloned human 5-HT6 receptors (Homo sapiens, UniProt P50406); test: receptor-binding assay, 5-HT6 (3H-LSD, HEK 293 cells); conditions: for Ki: 3H-LSD 2.7 nM, HEK 293 cells
T3 construct: expressed in transfected cells
Procedure: as §1, §2

male Wistar rats = test: Vogel's drinking conflict model (anxiolytic effect); assay type: in vivo, rat; conditions: ip., 30 minutes before the test, MED = minimum dose resulting in statistically significant effect
Procedure: Vogel's drinking conflict model was used for establishing the anxiolytic effect (Vogel at el., Psychopharmacologia, 21, 1, 1971). Male Wistar rats weighing 200 to 220 grams were restrained from drinking for 48 hours and deprived from feed for 24 hours prior to the experiment. The test substances or the vehicle were administered to the animals in a dose of 5.0-10.0-20.0 mg/kg intraperitoneally 30 minutes before the test. The test chamber was provided with a drinking tube which allowed the animals to drink. However, after each twentieth licking, the apparatus delivered a 0.7 mA electric shock to the animal. During the five-minute measurement period, the number of electric shocks was registered which the animals tolerated to appease their thirst. The effect of the test substance was expressed in the percentage increase in the number of tolerated electric shocks. The minimum effective dose (MED) was determined for each compound.

T1 sequence (P14842 whole entry): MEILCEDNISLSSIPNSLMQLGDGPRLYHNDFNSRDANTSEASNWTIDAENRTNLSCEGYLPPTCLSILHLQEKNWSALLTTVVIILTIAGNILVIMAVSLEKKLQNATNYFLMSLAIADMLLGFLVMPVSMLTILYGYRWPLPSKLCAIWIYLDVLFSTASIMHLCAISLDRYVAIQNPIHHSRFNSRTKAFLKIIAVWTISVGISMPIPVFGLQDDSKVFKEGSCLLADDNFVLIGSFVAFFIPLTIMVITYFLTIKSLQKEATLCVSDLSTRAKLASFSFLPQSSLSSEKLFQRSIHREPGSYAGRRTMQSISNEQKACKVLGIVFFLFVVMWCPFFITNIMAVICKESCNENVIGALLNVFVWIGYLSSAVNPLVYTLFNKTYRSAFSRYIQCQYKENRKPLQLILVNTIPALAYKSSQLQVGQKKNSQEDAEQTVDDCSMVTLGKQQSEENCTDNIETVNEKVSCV
T3 sequence (P50406 whole entry): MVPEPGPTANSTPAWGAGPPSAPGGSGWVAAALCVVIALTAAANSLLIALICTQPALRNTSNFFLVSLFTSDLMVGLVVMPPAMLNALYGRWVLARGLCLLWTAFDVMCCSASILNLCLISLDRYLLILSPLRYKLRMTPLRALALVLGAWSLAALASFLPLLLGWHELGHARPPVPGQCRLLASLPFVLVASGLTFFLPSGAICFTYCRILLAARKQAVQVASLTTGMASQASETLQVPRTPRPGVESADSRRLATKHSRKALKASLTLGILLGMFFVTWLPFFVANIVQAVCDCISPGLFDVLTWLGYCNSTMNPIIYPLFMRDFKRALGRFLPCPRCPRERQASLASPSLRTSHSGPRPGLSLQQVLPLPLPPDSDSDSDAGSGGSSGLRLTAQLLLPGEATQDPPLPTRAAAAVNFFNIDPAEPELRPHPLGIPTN

Row | Compound | affinity to the central 5-HT2A receptors (in words) (5-HT2A receptors) | Ki (5-HT2A receptors) [nM] | melting point [°C] | Porsolt-test (model for antidepressant effect), MED (male DBA mice) | antidepressant activity in Porsolt's test (in words) (male DBA mice; mice) | affinity to the central D4 receptors (in words) [1] | Ki [1] [nM] | Permanent cerebral ischemia model (model for neuroprotective effect), MED (male NMRI mice) | affinity towards central 5-HT6 receptors (in words) [2] | Ki [2] [nM] | Vogel-test (model for anxiolytic effect), MED (male Wistar rats) | Vogel-test (model for anxiolytic effect), MED (male Wistar rats; listed as (−)-5,7-dichloro-3-{4-[4-(4-chlorophenyl)-piperazin-1-yl]butyl}-3-ethyl-1,3-dihy)
1 | CCC1(CCCCN2CCN(c3ccc(Cl)cc3)CC2)C(=O)Nc2c(Cl)cc(Cl)cc21 (racemic) [Compound of the Formula (II), 5,7-dichloro-3-{4-[4-(4-chlorophenyl)-piperazin-1-yl]butyl}-3-ethyl-1,3-dihydro-2H-indol-2-one] | affinity greater by several orders of magnitude | 50 | 152 to 154 | 3 mg/kg | significant, dose-dependent antidepressant activity | did not show any significant binding | > 100 | 0.1 mg/kg | significant affinity | 9 | 5 mg/kg | 
2 | CCC1(CCCCN2CCN(c3ccc(Cl)cc3)CC2)C(=O)Nc2c(Cl)cc(Cl)cc21 (single isomer, unassigned; (+)) [(+)-enantiomer of the Formula (I), (+)-5,7-dichloro-3-{4-[4-(4-chlorophenyl)-piperazin-1-yl]butyl}-3-ethyl-1,3-dihydro-2H-indol-2-one] |  | > 200 | 139 to 141 | No effect |  |  | 35 | ineffective; also recorded: No effect | significant affinity | 11 | 10 mg/kg | 
3 | CCC1(CCCCN2CCN(c3ccc(Cl)cc3)CC2)C(=O)Nc2c(Cl)cc(Cl)cc21 (single isomer, unassigned; (-)) [(−)-enantiomer of the Formula (I), (−)-5,7-dichloro-3-{4-[4-(4-chlorophenyl)-piperazin-1-yl]-butyl}-3-ethyl-1,3-dihydro-2H-indol-2-one] | affinity greater by several orders of magnitude | 42 | 139 to 140 | No effect |  | significant affinity | 13 | 3 mg/kg and 3.0 mg/kg | not bound |  | No effect | did not show any anxiolytic effect
